Key:
[1] = tested on: Retinal pigmented epithelium cells (ARPE-19); assay: Cell viability assay: protection of RPE cells against oxidative damage from TBHP; format: cell-based; details: for Cyto-protective activity*: RPE cells, TBHP as oxidizing agent, relative to Sulindac; for Cyto-protective activity*: key: active = more active than Sulindac; inactive = less active than Sulindac
Method: Cultured cells and reagents: Retinal pigmented epithelium cells (ARPE-19) were obtained from American Type Culture Collection (ATCC, Manassas, Va.) and cultured at 37° C. in 5% CO2. All chemicals were purchased from Sigma unless specified.
Cell viability assay: Cells were cultured and assayed for cell viability essentially as described previously (14). ARPE-19 cells were plated at 10,000 cells per well in a 96-well plate. The cells were grown for 18-20 hours, the medium discarded in aseptic conditions and replaced with fresh culture medium containing the indicated drug concentration. The plates were incubated for 24 hours at 37° C. in a 5% CO2 incubator in the presence of sulindac or Compound 9. To examine the treatment effects on oxidative damage to RPE cells, cells were washed and incubated in media without serum with various concentrations of tert-butyl hydroperoxide (TBHP) for an additional 24h. The culture medium was then discarded and the cells were thoroughly rinsed in PBS. Cell viability was determined by using the Cell Titer 96 Aqueous One Cell Proliferation Assay (Promega) according to the manufacturer's instructions. The assay utilizes a tetrazolium compound that is converted into a water-soluble formazan by the action of cellular NADH oxidase activity in metabolically active cells. The formazan was quantified by measuring the absorbance at 490 nm using a colorimetric microtiter plate reader (SpectraMax Plus; Molecular Devices).
In the present studies, a series of compounds were identified as having the ability to protect RPE cells against oxidative damage using tert-butyl hydroperoxide (TBHP), an organic peroxide, as an oxidizing agent (10).

[2] = tested on: COX; details: background; cited from earlier work
[3] = tested on: cells; details: background; cited from earlier work
[4] = tested on: cells; details: background; cited from earlier work; remark: listed apart in the source
[5] = tested on: rat intact hearts (Langendorff model); assay: Langendorff model of ischemia/reperfusion injury, LDH release; format: in vivo, Sprague Dawley rats; details: 0.7 mg/kg i.p. daily for 48 h; FIG. 9
Method: The ex vivo Langendorff procedure is a well-established preparation used to investigate heart physiology, ischemia/reperfusion injury, and other cardiovascular insults (23, 24; also see, e.g., reference 22). Sprague Dawley rats (275-325g) were administered either no drug or Compound 9 daily (at 0.7 mg/kg) for a total of two days (two administrations in total). Forty-eight hours after the start of drug exposure, hearts were removed and exposed to 45 min no flow ischemia and 2 h reperfusion in the Langendorff model (hearts were first equilibrated in KHB buffer for 10 min and then subjected to 45 min ischemia followed by 2 h reperfusion with KHB buffer), in the absence of drug.
In LDH and TTC assays for the Langendorff Preparation, coronary effluent samples (500 μL) from the Langendorff preparation were obtained upon attachment of excised heart, every 15 min before ischemia, immediately after 45 min ischemia, and at 15 min intervals during reperfusion. LDH was measured (using a Cytotox-96 nonradioactive cytotoxicity assay kit (Promega), with the absorbance read at 490 nm). Immediately upon completion, the heart was sliced into 2-mm cross-sectional pieces and slices were incubated for 30 min with 1% 2,3,5-triphenyl tetrazolium chloride (TTC) stain in Krebs-Henseleit buffer (KHB) (pH=7.4) at 37° C. to distinguish between viable (red) and nonviable (white) tissue. Tissue slices were stored overnight in 10% formaldehyde before measurement of infarct size using NIH-Image J software.
The protective (preconditioning) effect of Compound 9 was evaluated in an art-recognized Langendorff model of ischemia/reperfusion injury. Compound 9 was administered via i.p. injection to test animals daily for two days, and animal hearts were then removed for performance of the Langendorff procedure (described above and known in the art).

Compound	Cyto-protective activity* [1]	other results
CC1=C(CC(=O)[O-])c2cc(F)ccc2/C1=C\c1ccc(N(C)C)cc1.[Na+] [Compound 2, sodium (Z)-2-(1-(4-(dimethylamino)benzylidene)-5-fluoro-2-methyl-1H-inden-3-yl)acetate]	inactive	–
COc1ccc2c(c1)/C(=C\c1cc(OC)c(OC)c(OC)c1)C(C)=C2CC(=O)O [Compound 3, (Z)-2-(6-methoxy-2-methyl-1-(3,4,5-trimethoxybenzylidene)-1H-inden-3-yl)acetic acid]	inactive	–
COc1ccc2c(c1)C(CC(=O)O)=C(C)/C2=C/c1ccc(SC(F)(F)F)cc1 [Compound 4, (Z)-2-(5-methoxy-2-methyl-1-(4-((trifluoromethyl)thio)benzylidene)-1H-inden-3-yl)acetic acid]	inactive	–
COc1ccc2c(c1)C(CC(=O)O)=C(C)/C2=C/c1cc(OC)c(Br)c(OC)c1 [Compound 5, (Z)-2-(1-(4-bromo-3,5-dimethoxybenzylidene)-5-methoxy-2-methyl-1H-inden-3-yl)acetic acid]	inactive	–
COc1ccc2c(c1)C(CC(=O)O)=C(C)/C2=C/c1ccc(N(C)C)cc1 [Compound 6, (Z)-2-(1-(4-(dimethylamino)benzylidene)-5-methoxy-2-methyl-1H-inden-3-yl)acetic acid]	inactive	–
COc1cc(/C=C2/C(C)=C(CC(=O)O)c3cc(OC)ccc32)cc(OC)c1 [Compound 7, (Z)-2-(1-(3,5-dimethoxybenzylidene)-5-methoxy-2-methyl-1H-inden-3-yl)acetic acid]	inactive	–
COc1cc(/C=C2/C(C)=C(CC(=O)O)c3cc(C)ccc32)cc(OC)c1OC [Compound 8, (Z)-2-(2,5-dimethyl-1-(3,4,5-trimethoxybenzylidene)-1H-inden-3-yl)acetic acid]	inactive	–
COc1ccc2c(c1)C(CC(=O)O)=C(C)/C2=C/c1ccc(OCc2ccccc2)cc1 [Compound 10, (Z)-2-(1-(4-(benzyloxy)benzylidene)-5-methoxy-2-methyl-1H-inden-3-yl)acetic acid]	active	Effectiveness in protecting RPE cells from TBHP compared with sulindac ([1]; compound at 25 μM vs sulindac 200 μM, FIG. 2): equally effective as sulindac; Fold lower effective concentration relative to sulindac (RPE cell protection) ([1]; sulindac 200 μM, Compound 10 at 25 μM, Compound 9 at 10 μM): 8 ×
COc1ccc2c(c1)C(CC(=O)O)=C(C)/C2=C/c1cc(OC)c(OC)c(OC)c1 [Compound 11, (Z)-2-(5-methoxy-2-methyl-1-(3,4,5-trimethoxybenzylidene)-1H-inden-3-yl)acetic acid]	inactive	–
COc1cc(/C=C2/C(C)=C(CC(=O)O)c3cc(F)ccc32)cc(OC)c1OC [Compound 12, (Z)-2-(5-fluoro-2-methyl-1-(3,4,5-trimethoxybenzylidene)-1H-inden-3-yl)acetic acid]	inactive	–
COc1ccc2c(c1)C(CC(=O)O)=C(C)/C2=C/c1ccc(O)c(OC)c1 [Compound 13, (Z)-2-(1-(4-hydroxy-3-methoxybenzylidene)-5-methoxy-2-methyl-1H-inden-3-yl)acetic acid]	inactive	–
COc1cc2c(cc1OC)/C(=C\c1ccc3c(c1)OCO3)C(C)=C2CC(=O)O [Compound 14, (Z)-2-(1-(benzo[d][1,3]dioxol-5-ylmethylene)-5,6-dimethoxy-2-methyl-1H-inden-3-yl)acetic acid]	inactive	–
COc1ccc2c(c1)C(CC(=O)O)=C(C)/C2=C/c1ccc(OC)c(O)c1 [Compound 15, (Z)-2-(1-(3-hydroxy-4-methoxybenzylidene)-5-methoxy-2-methyl-1H-inden-3-yl)acetic acid]	inactive	–
COc1ccc2c(c1)C(CC(=O)O)=C(C)/C2=C/c1cc(Br)c(O)c(OC)c1 [Compound 16, (Z)-2-(1-(3-bromo-4-hydroxy-5-methoxybenzylidene)-5-methoxy-2-methyl-1H-inden-3-yl)acetic acid]	inactive	–
COc1cc(/C=C2/C(C)=C(CC(=O)O)c3cc(OC)c(OC)cc32)cc(OC)c1 [Compound 17, (Z)-2-(1-(3,5-dimethoxybenzylidene)-5,6-dimethoxy-2-methyl-1H-inden-3-yl)acetic acid]	inactive	–
COc1cc2c(cc1OC)/C(=C\c1cc(OC)c(O)c(OC)c1)C(C)=C2CC(=O)NCc1ccco1 [Compound 18, (Z)-N-(furan-2-ylmethyl)-2-(1-(4-hydroxy-3,5-dimethoxybenzylidene)-5,6-dimethoxy-2-methyl-1H-inden-3-yl)acetamide]	inactive	–
COc1ccc2c(c1)C(Cc1nc3cnccc3[nH]1)=C(C)/C2=C/c1cc(OC)c(OC)c(OC)c1 [Compound 19, (Z)-2-((5-methoxy-2-methyl-1-(3,4,5-trimethoxybenzylidene)-1H-inden-3-yl)methyl)-1H-imidazo[4,5-c]pyridine]	inactive	–
COc1cc2c(cc1OC)/C(=C\c1cc(OC)c(OC)c(OC)c1)C(C)=C2CC(=O)NCc1ccco1 [Compound 20, (Z)-2-(5,6-dimethoxy-2-methyl-1-(3,4,5-trimethoxybenzylidene)-1H-inden-3-yl)-N-(furan-2-ylmethyl)acetamide]	inactive	–
COc1cc(/C=C2/C(C)=C(CC(=O)NCc3ccco3)c3cc(OC)c(OC)cc32)cc(OC)c1 [Compound 21, (Z)-2-(1-(3,5-dimethoxybenzylidene)-5,6-dimethoxy-2-methyl-1H-inden-3-yl)-N-(furan-2-ylmethyl)acetamide]	inactive	–
COc1cc2c(cc1OC)/C(=C\c1ccc(N(C)C)cc1)C(C)=C2CC(=O)NCc1ccco1 [Compound 22, (Z)-2-(1-(4-(dimethylamino)benzylidene)-5,6-dimethoxy-2-methyl-1H-inden-3-yl)-N-(furan-2-ylmethyl)acetamide]	inactive	–
COc1ccc2c(c1)C(CC(=O)O)=C(C)/C2=C/c1cc(OC)c(O)c(OC)c1 [Compound 23, (Z)-2-(1-(4-hydroxy-3,5-dimethoxybenzylidene)-5-methoxy-2-methyl-1H-inden-3-yl)acetic acid]	inactive	–
CC1=C(CC(=O)O)c2cc(F)ccc2/C1=C\c1ccc(S(C)(=O)=O)cc1 [Sulindac sulfone]	–	COX inhibitory activity [2]: no COX inhibitory activity; Activity in protecting cells against oxidative damage relative to sulindac [3]: more active than sulindac; Toxicity to cells relative to sulindac [4]: significantly more toxic
CC1=C(CC(=O)O)c2cc(F)ccc2/C1=C\c1ccc([S+](C)[O-])cc1 (centres unmarked) [sulindac]	–	TBHP concentration above which no longer protective for RPE cells ([1]; sulindac at 200 μM, FIG. 2): above 300 μM; Protective effect during the 45 min ischemia phase [5]: no protective effect; Protective effect during the 2 h reperfusion phase [5]: not as robust

From patent US11186534B2, “Derivatives of sulindac can protect normal cells against oxidative damage” (University of South Alabama, priority 2017, dated 2021)
